Data as given in US10815212B2, “Cytotoxin compounds and methods of isolation” (priority 2004, dated 2020).

What was measured:
[1] = Field-based feeding-deterrent assays
[2] = tested on: National Cancer Institute (NCI) 60 cell line panel
[3] = tested on: National Cancer Institute (NCI) 60 cell line panel; assay: cells; settings: read-out: LC50
RXF 393 = assay: cells; settings: Homo sapiens, RXF 393, read-out: LC50
M14 = assay: cells; settings: Homo sapiens, M14, read-out: LC50
LOX IMVI = assay: cells; settings: Homo sapiens, read-out: LC50
HCC-2998 = assay: cells; settings: Homo sapiens, HCC 2998, read-out: LC50
SK-MEL-5 = assay: cells; settings: Homo sapiens, SK-MEL-5, read-out: LC50

In the case of C=C(C)C/C(C)=C\C(=O)N/C=C/C(C)=C/C(C)C1C/C(C)=C/C=C/CCC(OC(N)=O)C(O)/C=C/C(O)CCC/C=C/C(=O)O1 (stereo not shown) [Palmerolide D], the “bioactivity in field-based feeding-deterrent assays” value (from here on “bioactivity”) [1] is reported as “displayed bioactivity”.
With C/C(C=O)=C\C(C)C1C/C(C)=C/C=C/CCC(OC(N)=O)C(O)/C=C/C(O)CCC/C=C/C(=O)O1 (stereo not shown) [Palmerolide E] the “activity/potency relative to palmerolide A (in words)” value ([2]; NCI 60 cell line bioassay) was “reduced activity” and the “bioactivity” value [1] was “displayed bioactivity”.
For CC(C)=CC(=O)N/C=C/C(C)=C/C(C)C1C/C(C)=C/C=C/CCCC(OC(N)=O)C(O)C(O)/C=C/CC/C=C/C(=O)O1 (stereo not shown) [Palmerolide C], the “bioactivity” value [1] was “displayed bioactivity”.
For CC(C)=CC(=O)N/C=C/C(C)=C/C(C)C1C/C(C)=C/C=C/CCC(OC(N)=O)C(O)/C=C/C(O)CCC/C=C/C(=O)O1 (stereo not shown) [Palmerolide A], the CC50 [3] was > 10 µM, the CC50 (RXF 393) was 6.5 µM and the CC50 (M14) was 0.076 µM. For the same compound, the “selectivity index among tested cell lines” value ([2]; most sensitive cells relative to other cell lines tested) was 10^3, the CC50 (LOX IMVI) was 9.8 µM and the CC50 (HCC-2998) was 6.5 µM. The “cytotoxicity (in words)” value (UACC-62) was “displays cytotoxicity”, the “bioactivity” value [1] was “displayed bioactivity” and the CC50 (SK-MEL-5) was 6.8 µM.
